Measured values from patent US4426524A, “Heterocyclic substituted benzyl alcohol, insecticidal ester derivatives, and intermediates” (priority 1982, dated 1984).
Where two headings read alike, the source gives them in different places.

Legend:
southern armyworm [1] = assay: Topical application, southern armyworm; assay type: in vivo, Spodoptera eridania; settings: SAW; for Topical % Kill @ 5000 ng/insect: 24 hours
Method: (§1) Topical Application: The compounds of this invention were tested for insecticidal activity against various insect species selected from southern armyworm (Spodoptera eridania), Mexican bean beetle, (Epilachna varivestis), milkweed bug (Oncopeltus fasciatus), and cabbage looper (Tricoplusia ni) by applying to the second or third dorsal thoracic segment of each larvae a one microliter droplet containing 5 mg/mL of test compound in acetone (5000 ng/insect). The test was allowed to stand 24 hours after application and was then read to determine the percent kill.
(§2) To determine the LD50 of the compounds, the topical application test was repeated by applying various amounts of toxicant. Also included among the species tested against for this determination were tobacco budworm (Heliothis virescens), beet armyworm (Spodoptera exigua), and boll weevil (Anthonomus grandis).

milkweed bug = assay: Topical application, milkweed bug; assay type: in vivo, Oncopeltus fasciatus; settings: MWB; for Topical % Kill @ 5000 ng/insect: 24 hours
Method: as §1, §2

Mexican bean beetle [2] = assay: Topical application, Mexican bean beetle; assay type: in vivo, Epilachna varivestis; settings: MBB; for Topical % Kill @ 5000 ng/insect: 24 hours
Method: as §1, §2

southern armyworm [3] = assay: Foliar application, southern armyworm; assay type: in vivo; settings: Spodoptera eridania, read-out: Foliar % Kill (ppm)
Method: (§3) Foliar Application: The activity of some of the compounds of the invention against various test species selected from pea aphid (Acyrthosiphon pisum), twospotted spider mite (Tetranychus urticae), southern armyworm (Spodoptera eridania), Mexican bean beetle (Epilachna varivestis), and cabbage looper (Tricoplusia ni) was determined by foliar application of the test compound. The test materials were formulated as aqueous solutions containing 10% acetone and 0.25% acetylphenoxypolyethoxyethanol. Activity against pea aphid was determined on English fava bean plants the leaves of which were sprayed to runoff with various concentrations of test solution prior to infestation with adult aphids. Activity against twospotted spider mite was evaluated on pinto bean plants whose leaves were sprayed to runoff with various concentrations of test solution after infestation with adult mites. Activity against the remaining species was evaluated on pinto bean plants whose leaves were sprayed to runoff with various concentrations of test solution before infestation with the appropriate immature insects. Mortality was read approximately 48 hours after treatment.

Mexican bean beetle [4] = assay: Foliar application, Mexican bean beetle; assay type: in vivo; settings: Epilachna varivestis, read-out: Foliar % Kill (ppm)
Method: as §3

pea aphid = assay: Foliar application, pea aphid; assay type: in vivo; settings: Acyrthosiphon pisum, read-out: Foliar % Kill (ppm)
Method: as §3

twospotted spider mite = assay: Foliar application, twospotted spider mite; assay type: in vivo; settings: Tetranychus urticae, read-out: Foliar % Kill (ppm)
Method: as §3

With `CC1(C)[C@H](C=C(Cl)Cl)[C@@H]1C(=O)OCc1cccc(-c2ccco2)c1` (relative stereo) [j, [3-(2-furanyl)phenyl]methyl cis-3-(2,2-dichloroethenyl)-2,2-dimethylcyclopropanecarboxylate] the “Topical LD50” value (southern armyworm [1]) was 377 ng/insect, the “Topical % Kill @ 5000 ng/insect” value (southern armyworm [1]) was 100% and the “Topical % Kill @ 5000 ng/insect” value (milkweed bug) was 0%. The “Topical % Kill @ 5000 ng/insect” value (Mexican bean beetle [2]) was 30%, the mortality at 512 ppm (southern armyworm [3]; SAW, foliar, 512 ppm, 48 hours) was 100% and the mortality at 512 ppm (Mexican bean beetle [4]; MBB, foliar, 512 ppm, 48 hours) was 50%. The mortality at 500 ppm (pea aphid; PA, foliar, 48 hours) was 40% and the mortality at 500 ppm (twospotted spider mite; TSM, foliar, 48 hours) was 0%.

With `CC1(C)[C@H](C=C(Cl)C(F)(F)F)[C@@H]1C(=O)OCc1cccc(-c2ccco2)c1` (relative stereo) [k, [3-(2-furanyl)phenyl]methyl cis-3-(2-chloro-3,3,3-trifluoro-1-propenyl)-2,2-dimethylcyclopropanecarboxylate] the “Topical LD50” value (southern armyworm [1]) was 366 ng/insect, the “Topical % Kill @ 5000 ng/insect” value (southern armyworm [1]) was 100% and the “Topical % Kill @ 5000 ng/insect” value (milkweed bug) was 40%. For the same molecule, the “Topical LD50” value (Mexican bean beetle [2]) was 510 ng/insect, the “Topical % Kill @ 5000 ng/insect” value (Mexican bean beetle [2]) was 90% and the mortality at 512 ppm (southern armyworm [3]; SAW, foliar, 512 ppm, 48 hours) was 100%. It also gave a mortality at 512 ppm (Mexican bean beetle [4]; MBB, foliar, 512 ppm, 48 hours) of 100%, a mortality at 512 ppm (pea aphid; PA, foliar, 512 ppm, 48 hours) of 100% and a mortality at 64 ppm (twospotted spider mite; TSM, foliar, 64 ppm, 48 hours) of 0%.

In the case of `CC1(C)[C@H](C(=O)OCc2cccc(-c3ccc(Br)o3)c2)[C@@H]1C=C(Cl)Cl` (relative stereo) [l, [3-(5-bromofuranyl)phenyl]methyl cis-3-(2,2-dichloroethenyl)-2,2-dimethylcyclopropanecarboxylate], the “Topical LD50” value (southern armyworm [1]) was 1819 ng/insect, the “Topical % Kill @ 5000 ng/insect” value (southern armyworm [1]) was 100% and the “Topical % Kill @ 5000 ng/insect” value (milkweed bug) was 0%. The “Topical % Kill @ 5000 ng/insect” value (Mexican bean beetle [2]) was 35%, the mortality at 512 ppm (southern armyworm [3]; 48 h) was 100% and the mortality at 512 ppm (Mexican bean beetle [4]; 48 h) was 80%. The mortality at 512 ppm (pea aphid; 48 h) was 75% and the mortality at 64 ppm (twospotted spider mite; 48 h) was 0%.

`Cc1c(COC(=O)[C@H]2[C@@H](C=C(Cl)C(F)(F)F)C2(C)C)cccc1-c1cnccn1` (relative stereo) [p, [2-methyl-3-(pyrazinyl)phenyl]methyl cis-3-(2-chloro-3,3,3-trifluoro-1-propenyl)-2,2-dimethylcyclopropanecarboxylate] was tested, and the “Topical LD50” value (southern armyworm [1]) was 1948 ng/insect, the “Topical % Kill @ 5000 ng/insect” value (southern armyworm [1]) was 90% and the “Topical LD50” value (milkweed bug) was 1050 ng/insect. For the same molecule, the “Topical % Kill @ 5000 ng/insect” value (milkweed bug) was 100%, the “Topical LD50” value (Mexican bean beetle [2]) was 93 ng/insect and the “Topical % Kill @ 5000 ng/insect” value (Mexican bean beetle [2]) was 100%. For the same molecule, the mortality at 500 ppm (southern armyworm [3]; SAW, foliar, 48 hours) was 100%, the mortality at 64 ppm (Mexican bean beetle [4]; MBB, foliar, 48 hours) was 80% and the mortality at 500 ppm (pea aphid; PA, foliar, 48 hours) was 100%. The mortality at 500 ppm (twospotted spider mite; TSM, foliar, 48 hours) was 100%.

For `Cc1c(COC(=O)[C@@H]2[C@H](C=C(Cl)Cl)C2(C)C)cccc1-c1cnccn1` (relative stereo) [q, [2-methyl-3-(pyrazinyl)phenyl]methyl cis-(2,2-dichloroethenyl)-2,2-dimethylcyclopropanecarboxylate], the “Topical LD50” value (southern armyworm [1]) was 2387 ng/insect, the “Topical % Kill @ 5000 ng/insect” value (southern armyworm [1]) was 90% and the “Topical LD50” value (milkweed bug) was 4915 ng/insect. The “Topical % Kill @ 5000 ng/insect” value (milkweed bug) was 90%, the “Topical LD50” value (Mexican bean beetle [2]) was 269 ng/insect and the “Topical % Kill @ 5000 ng/insect” value (Mexican bean beetle [2]) was 90%. It also gave a mortality at 500 ppm (southern armyworm [3]; SAW, foliar, 48 hours) of 85%, a mortality at 64 ppm (Mexican bean beetle [4]; MBB, foliar, 48 hours) of 55% and a mortality at 500 ppm (pea aphid; PA, foliar, 48 hours) of 100%. The mortality at 16 ppm (twospotted spider mite; TSM, foliar, 48 hours) was 0%.

`Cc1c(COC(=O)[C@H]2[C@@H](C=C(Cl)C(F)(F)F)C2(C)C)cccc1-c1cccnc1` (relative stereo) [r, [2-methyl-3-(pyridin-3-yl)phenyl]methyl cis-3-(2-chloro-3,3,3-trifluoro-1-propenyl)-2,2-dimethylcyclopropanecarboxylate] was tested, and the “Topical LD50” value (southern armyworm [1]) was 2626 ng/insect, the “Topical % Kill @ 5000 ng/insect” value (southern armyworm [1]) was 100% and the “Topical LD50” value (milkweed bug) was 1047 ng/insect. The “Topical % Kill @ 5000 ng/insect” value (milkweed bug) was 100%, the “Topical LD50” value (Mexican bean beetle [2]) was 863 ng/insect and the mortality at 500 ppm (southern armyworm [3]; SAW, foliar, 48 hours) was 100%. The mortality at 64 ppm (Mexican bean beetle [4]; MBB, foliar, 48 hours) was 25%, the mortality at 500 ppm (pea aphid; PA, foliar, 48 hours) was 95% and the mortality at 16 ppm (twospotted spider mite; TSM, foliar, 48 hours) was 0%.
